No end group written: not given here.
Experiments:
Eph receptor Fc proteins = experiment: Immobilized biotinylated peptides capturing Eph receptor Fc proteins on streptavidin plates; format: binding; conditions: A- and B-class Eph receptor Fc proteins
Method: To measure the specificity of peptide binding to Eph receptors, biotinylated peptides were immobilized on streptavidin-coated plates at 10 μM (Pierce Biotechnology, Rockford, Ill.) and incubated for 1 hr with different Eph ectodomain Fc fusion proteins at 2.5 μg/ml in binding buffer. Bound receptor was detected using an anti-Fc antibody coupled to alkaline phosphatase (Promega) with p-nitrophenylphosphate as substrate (Pierce). The background that was subtracted from the measurements was determined by omitting the Eph ectodomain.
Biotinylated peptides were immobilized on streptavidin-coated plates and used to capture Eph receptor Fc proteins. Bound receptor was detected using anti-Fc antibody coupled to alkaline phosphatase and was normalized to the value in the well with highest receptor binding.

EphB1 [1] = target: T1, EphB1 (Homo sapiens, UniProt P54762); experiment: Ephrin-B1 Fc-induced EphB1 tyrosine phosphorylation in human aortic endothelial cells; format: cell-based; conditions: concentrations up to 200 μM
T1 construct: endogenous EphB1 tyrosine phosphorylation; endogenous in cells; host or cells: human aortic endothelial cells
T1 sequence (P54762 18-984): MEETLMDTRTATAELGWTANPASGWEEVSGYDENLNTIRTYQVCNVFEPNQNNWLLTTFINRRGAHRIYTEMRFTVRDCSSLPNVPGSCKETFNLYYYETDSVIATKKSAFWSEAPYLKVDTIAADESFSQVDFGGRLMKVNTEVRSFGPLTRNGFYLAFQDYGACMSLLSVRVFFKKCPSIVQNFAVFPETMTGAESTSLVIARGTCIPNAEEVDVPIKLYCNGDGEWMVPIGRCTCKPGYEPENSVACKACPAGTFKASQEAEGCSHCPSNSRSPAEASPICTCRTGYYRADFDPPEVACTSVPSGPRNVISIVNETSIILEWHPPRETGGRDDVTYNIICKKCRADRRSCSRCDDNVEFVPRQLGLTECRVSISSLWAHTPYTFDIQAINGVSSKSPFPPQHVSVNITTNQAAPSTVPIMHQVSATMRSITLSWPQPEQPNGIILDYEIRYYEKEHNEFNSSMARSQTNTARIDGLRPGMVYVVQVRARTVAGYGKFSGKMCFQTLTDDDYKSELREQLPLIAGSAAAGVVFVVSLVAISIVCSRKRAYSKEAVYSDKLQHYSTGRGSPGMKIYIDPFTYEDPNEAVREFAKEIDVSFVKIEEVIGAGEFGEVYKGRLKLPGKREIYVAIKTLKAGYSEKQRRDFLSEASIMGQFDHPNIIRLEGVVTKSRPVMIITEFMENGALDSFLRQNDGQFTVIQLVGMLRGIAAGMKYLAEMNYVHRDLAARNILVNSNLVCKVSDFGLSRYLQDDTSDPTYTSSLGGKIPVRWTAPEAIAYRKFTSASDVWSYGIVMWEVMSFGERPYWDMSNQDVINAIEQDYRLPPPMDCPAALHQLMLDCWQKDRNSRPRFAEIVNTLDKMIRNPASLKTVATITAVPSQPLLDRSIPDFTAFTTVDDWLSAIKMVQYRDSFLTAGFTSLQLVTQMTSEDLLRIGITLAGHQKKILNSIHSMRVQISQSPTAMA

EphB receptors = experiment: Ephrin-B2 AP binding to different EphB ectodomains in presence of peptide (selectivity); conditions: 50 μM peptide
Method: Ephrin-B2 AP binding to the indicated immobilized EphB receptor ectodomains was measured in the presence of the indicated peptides and detected by measuring alkaline phosphatase activity. […] Wells coated with the different EphB ectodomains were incubated with ephrin-B2 AP and 50 μM of the indicated peptides. Ephrin-B2 AP binding in the presence of peptide was normalized to binding in the absence of peptide. All peptides were biotinylated except for FSPQ and EWYM. […] The EWYM, TWO, and FSPQ peptides were not synthesized with a biotin tag and therefore were tested directly for inhibition of ephrin-B2 binding.
Ephrin-B2 AP was co-incubated for 1 hr with different peptide concentrations in Ni-NTA wells coated with 1 μg/ml Eph receptor Fc. After several washes, the amount of ephrin-B2-AP bound was quantified using p-nitrophenylphosphate as a substrate. Alkaline phosphatase activity from wells without EphB Fc was subtracted as background. […] In these experiments, the two peptides are not biotinylated. […] Ephrin-B2-AP binding in the presence of peptide was normalized to binding in the absence of peptide in (A) and (B).

EphB1 [2] = target: T2, EphB1 (Homo sapiens, UniProt P54762); experiment: Inhibition of ephrin-B2 AP binding to immobilized EphB1 ectodomain
T2 construct: panned on the ectodomains of EphB1, EphB2, or EphB4 fused to human Fc
T2 sequence (P54762 18-540 limits assumed): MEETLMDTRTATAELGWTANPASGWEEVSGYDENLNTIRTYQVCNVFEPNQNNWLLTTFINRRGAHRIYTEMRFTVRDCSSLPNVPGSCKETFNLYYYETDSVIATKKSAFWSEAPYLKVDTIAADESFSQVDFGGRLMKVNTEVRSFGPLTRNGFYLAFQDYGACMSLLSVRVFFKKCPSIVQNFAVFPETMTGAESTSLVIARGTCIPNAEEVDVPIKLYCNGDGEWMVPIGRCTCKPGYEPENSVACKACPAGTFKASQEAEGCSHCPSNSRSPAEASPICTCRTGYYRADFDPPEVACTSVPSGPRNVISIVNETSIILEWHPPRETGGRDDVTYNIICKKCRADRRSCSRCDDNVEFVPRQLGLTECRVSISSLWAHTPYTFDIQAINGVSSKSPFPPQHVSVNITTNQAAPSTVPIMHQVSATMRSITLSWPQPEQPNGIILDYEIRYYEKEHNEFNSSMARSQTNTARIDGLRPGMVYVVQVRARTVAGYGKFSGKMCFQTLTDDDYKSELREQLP
Method: Peptides that bind to the same receptor region as the ephrins would be expected to inhibit Eph receptor-ephrin association, if they interact with sufficient affinity. A number of synthetic peptides were tested for their ability to inhibit binding of alkaline phosphatase-tagged ephrin-B2 (ephrin-B2-AP) to EphB receptors (FIG. 3). Most of the peptides were synthesized with a biotin tag and immobilized on streptavidin plates to verify their ability to capture the EphB ectodomains used for their isolation.
Ephrin-B2 AP binding to the indicated immobilized EphB receptor ectodomains was measured in the presence of the indicated peptides and detected by measuring alkaline phosphatase activity. […]. […] Wells coated with the different EphB ectodomains were incubated with ephrin-B2 AP and 50 μM of the indicated peptides. Ephrin-B2 AP binding in the presence of peptide was normalized to binding in the absence of peptide. All peptides were biotinylated except for FSPQ and EWYM. […] Therefore, IPWT was not used for further experiments. […]
The GP motif aligns with the GP motif of TNYL and the RAW motif aligns precisely next to the last amino acid of TNYL. […] After several washes, the amount of ephrin-B2-AP bound was quantified using p-nitrophenylphosphate as a substrate. […]

Eph receptor binding selectivity of immobilized biotinylated peptide (Eph receptor Fc proteins): bound selectively to EphB1
Selectivity of antagonism of ephrin-B2 AP binding across EphB ectodomains (EphB receptors): selective
Inhibition of ephrin-B2 AP binding to EphB1 (in words) (EphB1 [2]): inhibited ephrin binding to EphB1
Sequence: EWLSPNLAPSVR [SEQ ID NO 1]
Inhibition of endogenous EphB1 tyrosine phosphorylation (EphB1 [1]): did not inhibit endogenous EphB1 tyrosine phosphorylation
